From patent US20240025862A1, “SUBSTITUTED N-PHENYLURACILS AND SALTS THEREOF, AND USE THEREOF AS HERBICIDAL ACTIVE SUBSTANCES” (Bayer Aktiengesellschaft, priority 2020, published 2024)

Experiments:
Type in all cases: in vivo
[1] = test system: Alopecurus myosuroides (ALOMY); experiment: Post-emergence herbicidal action, greenhouse pot test (also comparative test C); settings: rated visually after about 3 weeks vs untreated controls, 100% = plants have died
How it was run: (§1)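 Greenhouse pot plants in sandy loam were sprayed post-emergence at the one-leaf stage (2–3 weeks after sowing) with WP or EC formulations plus 0.5% additive at 600 l/ha water. Activity was rated visually after about 3 weeks versus untreated controls (100% = dead, 0% = like control); rates were 20 g/ha or less, and 5 g/ha or less in the comparative test.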

[2] = test system: Echinochloa crus-galli (ECHCG); experiment: as above; settings: dosage 5 g/ha
How it was run: as §1

[3] = test system: Setaria viridis (SETVI); experiment: as above
How it was run: as §1

[4] = test system: Matricaria inodora (MATIN); experiment: as above
How it was run: as §1

[5] = test system: Polygonum convolvulus (POLCO); experiment: Post-emergence herbicidal action, greenhouse pot test; settings: dosage 5 g/ha
How it was run: (§2)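 Greenhouse-grown weeds in sandy loam were sprayed post-emergence at the one-leaf stage, 2–3 weeks after sowing. Compounds were formulated as WP or EC in water with 0.5% additive at 600 l/ha, at rates of 20 g/ha or less. Visual rating after about 3 weeks used a scale from 0% (like untreated control) to 100% (plants dead).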

[6] = test system: Pharbitis purpurea (PHBPU); experiment: as above; settings: dosage 5 g/ha
How it was run: as §2

[7] = test system: Amaranthus retroflexus (AMARE); experiment: as above; settings: rated visually after about 3 weeks vs untreated controls, 100% = plants have died
How it was run: as §2

[8] = test system: Viola tricolor (VIOTR); experiment: as above
How it was run: as §2

[9] = test system: Abutilon theophrasti (ABUTH); experiment: as above; settings: rated visually after about 3 weeks vs untreated controls, 100% = plants have died
How it was run: as §2

[10] = test system: Veronica persica (VERPE); experiment: as above
How it was run: as §2

[11] = test system: Brassica napus (BRSNW); experiment: Post-emergence crop plant compatibility, greenhouse pot test; settings: 1.25 g/ha, vs untreated controls
How it was run: (§3)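 Percent crop injury was judged by eye roughly three weeks after treatment, relative to untreated plants, where 100% meant death. Application was a post-emergence spray at the one-leaf stage, 600 l/ha water volume with 0.5% additive; letters a, b, c denote differing dose rates.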

[12] = test system: Triticum aestivum (TRZAS); experiment: as above; settings: 1.25 g/ha, vs untreated controls
How it was run: as §3

[13] = test system: Oryza sativa (ORYSA); experiment: Post-emergence crop plant compatibility, greenhouse pot test (also comparative test C); settings: vs untreated controls
How it was run: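 Rice and other crops sprayed post-emergence at one-leaf stage (2–3 weeks after sowing) with WP or EC formulations plus 0.5% additive at 600 l/ha water. Visual rating about 3 weeks later versus untreated controls (100% = dead, 0% = like control); suffixes a–c denote different doses.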

[14] = test system: Digitaria sanguinalis (DIGSA); experiment: Pre-emergence herbicidal action, greenhouse pot test; settings: scored after about 3 weeks
From the text: (§4) Seeds of monocotyledonous and dicotyledonous weed plants and crop plants were placed in plastic or organic planting pots and covered with soil. The compounds of the invention, formulated in the form of wettable powders (WP) or as emulsion concentrates (EC), were then applied to the surface of the covering soil as aqueous suspension or emulsion with addition of 0.5% additive at a water application rate equivalent to 600 l/ha (converted). After the treatment, the pots were placed in a greenhouse and kept under good growth conditions for the test plants. After about 3 weeks, the effect of the preparations was scored visually in comparison with untreated controls as percentages. For example, 100% activity=the plants have died, 0% activity=like control plants.
(§5) Tables B1 to B10 below show the effects of selected compounds of the general formula (I) according to Tables I.1 to I.33 on various harmful plants and at an application rate corresponding to 80 g/ha and less, which were obtained by the experimental method specified above. The appendices “a”, “b” and “c” give differentiation by different dosage with otherwise the same harmful plants tested.

[15] = test system: Pharbitis purpurea (PHBPU); experiment: as above; settings: scored after about 3 weeks
From the text: as §4, §5

[16] = test system: Alopecurus myosuroides (ALOMY); experiment: as above; settings: scored after about 3 weeks
From the text: as §4, §5

[17] = test system: Amaranthus retroflexus (AMARE); experiment: as above; settings: scored after about 3 weeks
From the text: as §4, §5

[18] = test system: Echinochloa crus-galli (ECHCG); experiment: as above; settings: scored after about 3 weeks
From the text: as §4, §5

[19] = test system: Avena fatua (AVEFA); experiment: as above; settings: 80 g/ha, scored after about 3 weeks
From the text: as §4, §5

[20] = test system: Abutilon theophrasti (ABUTH); experiment: as above; settings: scored after about 3 weeks
From the text: as §4, §5

[21] = test system: Lolium rigidum (LOLRI); experiment: as above; settings: scored after about 3 weeks
From the text: as §4, §5

[22] = test system: Veronica persica (VERPE); experiment: as above; settings: scored after about 3 weeks
From the text: as §4, §5

[23] = test system: Matricaria inodora (MATIN); experiment: as above; settings: scored after about 3 weeks
From the text: as §4, §5

[24] = test system: Glycine max (GLXMA); experiment: Pre-emergence crop plant compatibility, greenhouse pot test; settings: 20 g/ha
From the text: as §4
(§6) The observed effects on selected crop plants are reported here in comparison to the untreated controls (values in %).

[25] = test system: Zea mays (ZEAMX); experiment: as above; settings: 20 g/ha
From the text: as §4, §6

## COCCOCCOC(=O)COc1ccccc1Oc1cc(-n2c(=O)cc(C(F)(F)F)n(C)c2=O)c(F)cc1Cl [I.7-23]
[1]; 1.25 g/ha
  Post-emergence action at 1.25 g/ha against ALOMY in %: 80%
[1]; 5 g/ha
  Post-emergence action at 5 g/ha against ALOMY in %: 100%
[2]
  Post-emergence action against ECHCG in %: 100%
[3]; dosage 1.25 g/ha
  Post-emergence action against SETVI in %: 100%
[3]; dosage 5 g/ha
  Post-emergence action against SETVI in %: 100%
[4]; dosage 1.25 g/ha
  Post-emergence action against MATIN in %: 90%
[4]; dosage 5 g/ha
  Post-emergence action against MATIN in %: 100%
[5]
  Post-emergence action against POLCO in %: 100%
[6]
  Post-emergence action against PHBPU in %: 100%
[7]; 1.25 g/ha
  Post-emergence action at 1.25 g/ha against AMARE in %: 100%
[7]; 5 g/ha
  Post-emergence action at 5 g/ha against AMARE in %: 100%
[8]; 1.25 g/ha
  Post-emergence action against VIOTR: 100%
[8]; 5 g/ha
  Post-emergence action against VIOTR: 100%
[9]; 1.25 g/ha
  Post-emergence action at 1.25 g/ha against ABUTH in %: 100%
[9]; 5 g/ha
  Post-emergence action at 5 g/ha against ABUTH in %: 100%
[10]; 1.25 g/ha
  Post-emergence action against VERPE: 90%
[10]; 5 g/ha
  Post-emergence action against VERPE: 100%
[11]
  Post-emergence action against BRSNW (crop plant compatibility): 20%
[12]
  Post-emergence action against TRZAS (crop plant compatibility): 10%
[13]; 1.25 g/ha
  Post-emergence action against ORYSA (crop plant compatibility): 10%
[13]; 5 g/ha
  Post-emergence action against ORYSA (crop plant compatibility): 20%
[14]; 20 g/ha
  Pre-emergence action against DIGSA in %: 100%
[14]; 80 g/ha
  Pre-emergence action against DIGSA in %: 100%
[15]; 20 g/ha
  Pre-emergence action against PHBPU in %: 100%
[15]; 80 g/ha
  Pre-emergence action against PHBPU in %: 100%
[16]; 20 g/ha
  Pre-emergence action against ALOMY in %: 90%
[16]; 80 g/ha
  Pre-emergence action against ALOMY in %: 100%
[17]; 20 g/ha
  Pre-emergence action against AMARE in %: 100%
[17]; 80 g/ha
  Pre-emergence action against AMARE in %: 100%
[18]; 20 g/ha
  Pre-emergence action against ECHCG in %: 80%
[18]; 80 g/ha
  Pre-emergence action against ECHCG in %: 90%
[19]
  Pre-emergence action against AVEFA in %: 90%
[20]; 20 g/ha
  Pre-emergence action against ABUTH in %: 100%
[20]; 80 g/ha
  Pre-emergence action against ABUTH in %: 100%
[21]; 20 g/ha
  Pre-emergence action against LOLRI in %: 90%
[21]; 80 g/ha
  Pre-emergence action against LOLRI in %: 100%
[22]; 20 g/ha
  Pre-emergence action against VERPE in %: 100%
[22]; 80 g/ha
  Pre-emergence action against VERPE in %: 100%
[23]; 20 g/ha
  Pre-emergence action against MATIN in %: 100%
[23]; 80 g/ha
  Pre-emergence action against MATIN in %: 100%
[24]
  Pre-emergence action against GLXMA in %: 10%
[25]
  Pre-emergence action against ZEAMX in %: 20%
